# Patent publication US11090292B2, “Compositions and methods of use of an inappetance-controlling compound” (Aratana Therapeutics, Inc., priority 2012, dated 2021)
# Tests used:
# cortisol [1] = test: Example 9: serum cortisol concentration; assay type: in vivo, cats; conditions: day 4
# Experimental: (§1) A four-day study was performed to further assess the pharmacokinetics of formulation 8 from Example 3 (i.e., the most “well-accepted” formulation) in cats. Moreover, the administration of formulation 8 was also analyzed to determine if administration of this formulation could induce sustained production of IGF-1 and relatively depressed, mitigated, or lower levels of cortisol. The different capromorelin-dosing regimens were also assessed for the impact on food intake and changes in body mass.
# Twenty-four adult cats were divided into one of four treatment groups, with all four groups as active treatment groups. Each of the active treatment groups included 6 cats. The first group received a sterile injection of a capromorelin composition containing a 0.75 mg/kg concentration of capromorelin once per day during the four-day experiment. The second group received a once-daily sterile injection of a capromorelin composition at a concentration of 2 mg/kg. The third group received a once-daily dose of a capromorelin composition at a concentration of 2 mg/kg, via oral gavage. […]
# During the seven day study period, on an at least once-daily basis, each of the cats was monitored for clinical observations, mortality, moribundity, body mass, acceptability/palatability, and food consumption. […]
# cortisol [2] = test: Example 4: serum cortisol concentration; assay type: in vivo, Beagle dogs; conditions: approximately 0.5 h post treatment, days 1, 4 and 7
# Experimental: A controlled, seven-day study was performed to assess the impact of different capromorelin-dosing regimens on the production of IGF-1, GH, and cortisol. The different capromorelin-dosing regimens were also assessed for the impact on food intake and changes in body mass.
# […] were divided into one of three treatment groups, with one negative control group and two active treatment groups. Each of the three treatment groups included three males and three females. The first group received a placebo formulation (i.e., deionized water) twice per day, via oral gavage. The second group received a once-daily dose of the capromorelin composition at a concentration of 3 mg/kg, via oral gavage. The third group received a twice-daily dose of the capromorelin composition at a concentration of 3 mg/kg, via oral gavage.
# During the ten day study period, on an at least once-daily basis, each of the dogs was monitored for clinical observations, mortality, moribundity, body mass, acceptability/palatability, and food consumption. Serum samples were taken to measure capromorelin concentration, GH concentration, IGF-1 concentration, and cortisol concentration. Serum samples were taken on days 1, 2, 4, and 7 at −15 minutes (pre-dose), immediately prior to dosing (0 minutes) and 30, 45, 60, 90, 120, 240, 360, and/or 480 minutes post dosing. […]
# IGF-1 = test: Example 9: serum IGF-1 concentration; assay type: in vivo, cats
# Experimental: as §1
# Twenty-four adult cats were divided into one of four treatment groups, with all four groups as active treatment groups. Each of the active treatment groups included 6 cats. The first group received a sterile injection of a capromorelin composition containing a 0.75 mg/kg concentration of capromorelin once per day during the four-day experiment. The second group received a once-daily sterile injection of a capromorelin composition at a concentration of 2 mg/kg. The third group received a once-daily dose of a capromorelin composition at a concentration of 2 mg/kg, via oral gavage. The fourth group received a once-daily dose of a capromorelin composition containing capromorelin at a concentration of 4 mg/kg, via oral gavage.
# During the seven day study period, on an at least once-daily basis, each of the cats was monitored for clinical observations, mortality, moribundity, body mass, acceptability/palatability, and food consumption. Serum samples were taken to measure capromorelin concentration, IGF-1 concentration, and cortisol concentration. Serum samples were taken on days 1 and 4 immediately prior to dosing (0 minutes) and 30, 60, 90, 120, 240, 360, and/or 480 minutes post dosing. Additional serum samples were taken at 8 AM on Day 7 of the study to assess long-term impact of the active treatments.
# [3] = Example 13 cat compromised kidney study: body weight and diet consumption; assay type: in vivo, cats with compromised kidney function; conditions: subcutaneous 2 mg/kg daily for 14 days
# Experimental: The following study was undertaken to assess multiple points. First, the following experiments were conducted to determine if a formulation of capromorelin, when administered either intravenously or subcutaneously, can stimulate appetite in cats with compromised kidney function. Second, the following experiments were conducted to assess the pharmacokinetic profile of capromorelin in the serum of cats with compromised kidney function. Finally, the following experiments were conducted to determine if capromorelin accumulates in the serum after 14 days of treatment that is subcutaneously administered.
# Sixteen cats with compromised kidney function were acclimatized for the following study. Animals assigned to Group 1 (n=6) received an intravenous administration of a capromorelin formulation (i.e., capromorelin in sterile water) at a dose of 0.75 mg/kg on Day 0 of the experiment. Animals assigned to Group 2 (n=6) received a subcutaneous administration of a capromorelin formulation (2.1% w/v capromorelin, 1% w/v benzyl alcohol, and citrate buffer) daily for 14 days at a dose of 2 mg/kg. Animals assigned to Group 3 (n=4) served as untreated controls. […] Diet consumption was also monitored on study days −7 until day 13 for the animals in Groups 2 and 3 only.
# growth hormone (GH) = test: Example 1: serum GH concentration; assay type: in vivo, Beagle dogs; conditions: once-daily 6 mg/kg or twice-daily 3 mg/kg, approximately 0.5 h after dosing, days 1, 2, 4, 7
# Experimental: A controlled, seven-day study was performed to assess the impact of different capromorelin-dosing regimens on the production of insulin-like growth factor 1 (hereinafter “IGF-1”), growth hormone (hereinafter “GH”), and cortisol. The different capromorelin-dosing regimens were also assessed for the impact on food intake and changes in body mass.
# Eighteen adult non-naïve Beagle dogs (nine males and nine females) were divided into one of three treatment groups. Each of the three treatment groups included three males and three females. Group A, which was the control group, was dosed twice per day, via oral gavage, with a vehicle (deionized water alone) and was used as a baseline data point for comparison against the active treatment regimens. Group B comprised an active treatment group that received two treatments per day, via oral gavage, with a capromorelin-containing composition with a concentration of 3 mg/kg capromorelin per treatment. Finally, Group C comprised an active treatment group that received one treatment per day, via oral gavage, with a capromorelin-containing composition with a concentration of 6 mg/kg capromorelin per treatment.
# During the ten day study period, on an at least once-daily basis, each of the dogs was monitored for clinical observations, mortality, morbidity, body mass, and food consumption. […]
structure (smiles),measurement,setting,value
CN1N=C2CCN(C(=O)[C@@H](COCc3ccccc3)NC(=O)C(C)(C)N)C[C@@]2(Cc2ccccc2)C1=O.O=C(O)C(O)C(O)C(=O)O [capromorelin],increases in cortisol serum levels relative to day 1,cortisol [1],mitigated on day 4
same,cortisol concentrations in the serum relative to deionized water,cortisol [2],increased
same,increase in serum IGF-1 concentration at eight hours post administration relative to time 0,"IGF-1; 0.75 mg/kg sterile injectable, day 1",approximately 39.8%
same,increase in serum IGF-1 concentration at eight hours post administration relative to time 0,"IGF-1; 0.75 mg/kg sterile injectable, day 4",approximately 12.2%
same,increase in serum IGF-1 concentration at eight hours post administration relative to time 0,"IGF-1; 2 mg/kg oral, day 1",approximately 26.6%
same,increase in serum IGF-1 concentration at eight hours post administration relative to time 0,"IGF-1; 2 mg/kg oral, day 4",approximately 7.6%
same,increase in serum IGF-1 concentration at eight hours post administration relative to time 0,"IGF-1; 2 mg/kg sterile injectable, day 1",~43.1%
same,increase in serum IGF-1 concentration at eight hours post administration relative to time 0,"IGF-1; 2 mg/kg sterile injectable, day 4",~10.8%
same,increase in serum IGF-1 concentration at eight hours post administration relative to time 0,"IGF-1; 4 mg/kg oral, day 1",~30.8%
same,increase in serum IGF-1 concentration at eight hours post administration relative to time 0,"IGF-1; 4 mg/kg oral, day 4",~0.7%
same,"amount of food consumed, Group 2 versus untreated Group 3",[3],no significant difference
same,body weights of Group 2 versus untreated Group 3,[3],no significant differences
same,GH levels in the serum after dosing,growth hormone (GH),marked increase
